Laboratory results from ChEMBL document CHEMBL5113519, “Discovery of Novel Imidazo[4,5-c]quinoline Derivatives to Treat Inflammatory Bowel Disease (IBD) by Inhibiting Multiple Proinflammatory Signaling Pathways and Restoring Intestinal Homeostasis” (J Med Chem, 2022).
The source made the active and inactive calls. The rule behind the calls is not given here.

Tests used:
[1] = molecular target: Tyrosine-protein kinase JAK1 (Homo sapiens, UniProt P23458); experiment: Inhibition of JAK1 (unknown origin) using Kinase/Tyr 6 peptide as substrate incubated for 1 hrs in presence of ATP by fluorescence microplate reader analysis
Chain of Tyrosine-protein kinase JAK1 (P23458 whole entry): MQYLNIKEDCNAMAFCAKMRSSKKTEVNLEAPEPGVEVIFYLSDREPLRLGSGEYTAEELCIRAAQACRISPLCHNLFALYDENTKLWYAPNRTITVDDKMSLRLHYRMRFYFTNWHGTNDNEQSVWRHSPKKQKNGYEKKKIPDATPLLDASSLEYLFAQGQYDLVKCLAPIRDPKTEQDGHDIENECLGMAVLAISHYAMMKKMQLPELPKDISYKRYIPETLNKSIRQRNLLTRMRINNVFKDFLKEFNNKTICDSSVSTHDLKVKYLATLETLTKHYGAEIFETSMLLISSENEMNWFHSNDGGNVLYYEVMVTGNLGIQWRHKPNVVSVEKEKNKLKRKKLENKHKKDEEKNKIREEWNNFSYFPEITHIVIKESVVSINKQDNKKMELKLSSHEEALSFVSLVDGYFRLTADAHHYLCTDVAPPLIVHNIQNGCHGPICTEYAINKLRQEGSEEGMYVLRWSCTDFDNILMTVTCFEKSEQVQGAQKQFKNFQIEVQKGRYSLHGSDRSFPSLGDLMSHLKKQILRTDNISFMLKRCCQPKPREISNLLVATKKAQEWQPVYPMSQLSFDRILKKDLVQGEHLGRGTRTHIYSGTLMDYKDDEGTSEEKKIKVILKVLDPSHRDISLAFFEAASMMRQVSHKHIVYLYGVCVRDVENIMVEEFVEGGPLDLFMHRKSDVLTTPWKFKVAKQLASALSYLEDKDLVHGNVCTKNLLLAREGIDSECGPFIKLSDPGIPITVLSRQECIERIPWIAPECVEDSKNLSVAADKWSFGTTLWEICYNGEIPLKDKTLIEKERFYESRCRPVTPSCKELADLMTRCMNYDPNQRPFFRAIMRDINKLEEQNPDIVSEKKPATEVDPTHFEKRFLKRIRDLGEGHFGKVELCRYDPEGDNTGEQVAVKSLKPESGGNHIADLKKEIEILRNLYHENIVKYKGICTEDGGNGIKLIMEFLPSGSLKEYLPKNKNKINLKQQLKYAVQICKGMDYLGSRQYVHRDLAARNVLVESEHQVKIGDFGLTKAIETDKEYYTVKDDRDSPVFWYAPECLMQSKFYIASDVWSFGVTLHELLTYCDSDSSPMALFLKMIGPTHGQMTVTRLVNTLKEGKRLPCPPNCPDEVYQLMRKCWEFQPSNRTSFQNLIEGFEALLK

[2] = molecular target: T1, Tyrosine-protein kinase JAK3 (Homo sapiens, UniProt P52333)
T1 sequence (P52333 whole entry): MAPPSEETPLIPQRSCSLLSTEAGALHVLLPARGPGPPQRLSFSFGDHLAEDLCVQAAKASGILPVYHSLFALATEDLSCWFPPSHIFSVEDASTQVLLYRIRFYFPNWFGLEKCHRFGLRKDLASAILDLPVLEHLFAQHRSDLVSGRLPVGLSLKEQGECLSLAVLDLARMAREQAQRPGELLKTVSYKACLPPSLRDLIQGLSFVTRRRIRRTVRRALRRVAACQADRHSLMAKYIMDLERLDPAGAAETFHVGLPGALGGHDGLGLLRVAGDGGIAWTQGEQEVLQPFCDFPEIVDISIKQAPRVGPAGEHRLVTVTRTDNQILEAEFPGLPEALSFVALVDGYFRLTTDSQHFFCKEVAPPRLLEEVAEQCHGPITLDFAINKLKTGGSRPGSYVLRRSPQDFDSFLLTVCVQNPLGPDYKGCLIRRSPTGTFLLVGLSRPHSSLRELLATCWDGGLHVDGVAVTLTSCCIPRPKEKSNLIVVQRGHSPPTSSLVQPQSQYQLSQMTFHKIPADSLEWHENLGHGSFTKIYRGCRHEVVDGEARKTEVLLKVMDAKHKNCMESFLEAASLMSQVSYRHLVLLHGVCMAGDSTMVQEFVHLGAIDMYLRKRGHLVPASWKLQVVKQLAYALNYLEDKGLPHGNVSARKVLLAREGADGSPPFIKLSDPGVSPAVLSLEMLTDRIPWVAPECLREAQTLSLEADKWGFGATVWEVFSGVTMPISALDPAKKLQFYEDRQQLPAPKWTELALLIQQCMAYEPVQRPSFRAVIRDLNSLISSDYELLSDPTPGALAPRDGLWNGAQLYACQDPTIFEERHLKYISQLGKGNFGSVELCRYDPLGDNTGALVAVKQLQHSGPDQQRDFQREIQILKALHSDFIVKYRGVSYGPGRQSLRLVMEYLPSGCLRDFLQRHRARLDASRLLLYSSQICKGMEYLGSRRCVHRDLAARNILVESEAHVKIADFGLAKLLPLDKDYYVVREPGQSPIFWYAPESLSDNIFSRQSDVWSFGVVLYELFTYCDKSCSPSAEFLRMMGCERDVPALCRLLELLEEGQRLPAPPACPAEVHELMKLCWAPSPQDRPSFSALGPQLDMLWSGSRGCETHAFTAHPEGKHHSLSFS
Description: Inhibition of JAK3 (unknown origin) using Kinase/Tyr 6 peptide as substrate incubated for 1 hrs in presence of ATP by fluorescence microplate reader analysis

[3] = molecular target: Tyrosine-protein kinase JAK2 (Homo sapiens, UniProt O60674)
Chain of Tyrosine-protein kinase JAK2 (O60674 whole entry): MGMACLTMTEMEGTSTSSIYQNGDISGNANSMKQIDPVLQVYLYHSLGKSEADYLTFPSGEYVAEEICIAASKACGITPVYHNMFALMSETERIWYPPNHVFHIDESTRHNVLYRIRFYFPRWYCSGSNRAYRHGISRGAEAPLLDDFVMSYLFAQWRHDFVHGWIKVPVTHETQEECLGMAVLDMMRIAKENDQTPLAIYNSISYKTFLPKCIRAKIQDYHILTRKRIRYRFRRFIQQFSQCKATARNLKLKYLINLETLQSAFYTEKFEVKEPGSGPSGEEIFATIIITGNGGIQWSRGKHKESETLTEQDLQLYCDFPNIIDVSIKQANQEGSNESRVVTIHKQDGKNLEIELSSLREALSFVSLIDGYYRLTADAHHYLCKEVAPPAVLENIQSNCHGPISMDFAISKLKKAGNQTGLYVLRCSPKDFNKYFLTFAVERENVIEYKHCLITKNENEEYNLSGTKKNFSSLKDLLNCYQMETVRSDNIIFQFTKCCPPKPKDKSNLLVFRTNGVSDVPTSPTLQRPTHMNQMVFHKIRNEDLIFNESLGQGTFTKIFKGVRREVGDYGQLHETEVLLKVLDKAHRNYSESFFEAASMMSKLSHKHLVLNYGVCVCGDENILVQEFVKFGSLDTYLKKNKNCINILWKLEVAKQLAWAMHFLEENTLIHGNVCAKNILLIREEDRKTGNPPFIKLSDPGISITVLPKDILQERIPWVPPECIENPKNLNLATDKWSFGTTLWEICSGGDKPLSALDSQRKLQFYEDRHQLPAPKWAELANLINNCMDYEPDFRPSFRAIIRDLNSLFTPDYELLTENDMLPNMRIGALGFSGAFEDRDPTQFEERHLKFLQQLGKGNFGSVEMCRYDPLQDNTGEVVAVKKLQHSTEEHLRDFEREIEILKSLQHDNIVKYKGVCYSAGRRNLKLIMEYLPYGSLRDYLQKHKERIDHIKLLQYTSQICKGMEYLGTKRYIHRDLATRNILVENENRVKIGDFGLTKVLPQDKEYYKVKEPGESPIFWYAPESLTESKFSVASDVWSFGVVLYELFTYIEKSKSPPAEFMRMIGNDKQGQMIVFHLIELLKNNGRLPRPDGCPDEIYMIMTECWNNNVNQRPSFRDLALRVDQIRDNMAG
Description: Inhibition of JAK2 (unknown origin) using Kinase/Tyr 6 peptide as substrate incubated for 1 hrs in presence of ATP by fluorescence microplate reader analysis

[4] = molecular target: Nuclear factor NF-kappa-B complex (Homo sapiens, UniProt P19838+Q00653+Q04206); experiment: Inhibition of NF kappa B activation (unknown origin); assay type: protein-complex assay
Chain of Nuclear factor NF-kappa-B complex (P19838 1-433 limits assumed): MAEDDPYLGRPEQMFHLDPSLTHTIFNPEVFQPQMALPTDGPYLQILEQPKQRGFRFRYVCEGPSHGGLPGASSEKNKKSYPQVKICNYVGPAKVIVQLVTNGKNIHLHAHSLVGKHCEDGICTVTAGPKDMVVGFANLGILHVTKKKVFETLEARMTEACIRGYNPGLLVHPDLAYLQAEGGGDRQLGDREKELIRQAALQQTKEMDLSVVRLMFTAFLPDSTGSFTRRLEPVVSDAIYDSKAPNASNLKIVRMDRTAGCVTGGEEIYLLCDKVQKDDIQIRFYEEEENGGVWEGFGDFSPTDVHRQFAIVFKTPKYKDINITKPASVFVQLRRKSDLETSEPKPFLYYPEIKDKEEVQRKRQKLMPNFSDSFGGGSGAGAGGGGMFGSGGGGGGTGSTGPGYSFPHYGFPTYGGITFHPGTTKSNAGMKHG
Chain of Nuclear factor NF-kappa-B complex (Q00653 1-454 limits assumed): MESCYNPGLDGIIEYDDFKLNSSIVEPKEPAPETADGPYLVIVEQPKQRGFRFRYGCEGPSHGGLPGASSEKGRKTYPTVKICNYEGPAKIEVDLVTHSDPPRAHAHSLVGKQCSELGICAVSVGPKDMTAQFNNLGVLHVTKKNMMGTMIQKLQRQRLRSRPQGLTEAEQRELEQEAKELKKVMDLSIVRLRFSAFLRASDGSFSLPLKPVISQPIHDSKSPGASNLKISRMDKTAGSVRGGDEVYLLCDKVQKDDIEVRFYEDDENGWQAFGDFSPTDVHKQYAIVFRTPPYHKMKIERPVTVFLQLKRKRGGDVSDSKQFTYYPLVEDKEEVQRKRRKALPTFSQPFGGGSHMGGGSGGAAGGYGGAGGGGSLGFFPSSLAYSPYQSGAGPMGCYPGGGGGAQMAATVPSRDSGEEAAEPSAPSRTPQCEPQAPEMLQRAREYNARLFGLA
Chain of Nuclear factor NF-kappa-B complex (Q04206 whole entry): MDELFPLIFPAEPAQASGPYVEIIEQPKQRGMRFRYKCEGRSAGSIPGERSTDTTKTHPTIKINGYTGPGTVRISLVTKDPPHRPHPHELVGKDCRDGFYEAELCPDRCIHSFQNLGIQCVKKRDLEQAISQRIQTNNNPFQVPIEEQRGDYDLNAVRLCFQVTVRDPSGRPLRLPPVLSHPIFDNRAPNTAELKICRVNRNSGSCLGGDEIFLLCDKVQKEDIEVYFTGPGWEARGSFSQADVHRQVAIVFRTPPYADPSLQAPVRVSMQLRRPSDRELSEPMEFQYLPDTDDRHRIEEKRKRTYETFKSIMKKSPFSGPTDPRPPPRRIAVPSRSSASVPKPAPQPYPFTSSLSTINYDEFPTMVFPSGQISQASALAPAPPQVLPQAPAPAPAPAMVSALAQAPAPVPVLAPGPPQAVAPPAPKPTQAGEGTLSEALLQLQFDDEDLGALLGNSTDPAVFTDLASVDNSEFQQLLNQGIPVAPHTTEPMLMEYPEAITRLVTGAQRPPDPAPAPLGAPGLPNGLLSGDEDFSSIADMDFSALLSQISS

[5] = Cytotoxicity against human THP1-Dual cells assessed as inhibition of cell growth measured after 24 hrs by CCK-8 method; assay type: toxicity, cell-based
Mus musculus [6] = experiment: Antiinflammatory activity in DSS-induced acute colitis C57BL/6 mouse model assessed as reduction in inflammatory cell infiltration in colon by measuring histopathological score at 100 mg/kg, po by H and E staining based analysis; assay type: functional, organism-based
Mus musculus [7] = experiment: Anti-inflammatory activity in TNBS induced IBD BALB/c mouse model assessed as reduction in weight by measuring disease activity index score at 100 mg/kg via oral gavage administered daily for 12 days measured daily; assay type: functional, organism-based; conditions: time 12.0 day
Mus musculus [8] = experiment: Antiinflammatory activity in DSS-induced acute colitis C57BL/6 mouse model assessed as reduction in lamina propria damage in colon by measuring histopathological score at 100 mg/kg, po by H and E staining based analysis; assay type: functional, organism-based
Mus musculus [9] = experiment: Anti-inflammatory activity in TNBS induced IBD BALB/c mouse model assessed as reduction in bloody stool by measuring disease activity index score at 100 mg/kg via oral gavage administered daily for 12 days; assay type: functional, organism-based; conditions: time 12.0 day
Mus musculus [10] = experiment: Antiinflammatory activity in DSS-induced acute colitis C57BL/6 mouse model assessed as reduction in intestinal edema in colon by measuring histopathological score at 100 mg/kg, po by H and E staining based analysis; assay type: functional, organism-based
Mus musculus [11] = experiment: Antiinflammatory activity in DSS-induced acute colitis C57BL/6 mouse model assessed as reduction in number of goblet cells in colon by measuring histopathological score at 100 mg/kg, po by H and E staining based analysis; assay type: functional, organism-based
Mus musculus [12] = experiment: Anti-inflammatory activity in TNBS induced IBD BALB/c mouse model assessed as reduction in stool softness by measuring disease activity index score at 100 mg/kg via oral gavage administered daily for 12 days; assay type: functional, organism-based; conditions: time 12.0 day
Mus musculus [13] = experiment: Antiinflammatory activity in DSS-induced acute colitis C57BL/6 mouse model assessed as reduction in colon villi integrity in colon by measuring histopathological score at 100 mg/kg, po by H and E staining based analysis; assay type: functional, organism-based
Mus musculus [14] = experiment: Antiinflammatory activity in DSS-induced acute enteritis C57BL mouse model assessed as suppression of DSS induced weight loss at 100 mg/kg, po administered daily and measured upto 11 days relative to control; assay type: functional; conditions: time <= 11 day

Row | SMILES | IC50 [1] [µM] | IC50 [2] [µM] | further results
1 | Cc1nc2cnc3ccc(-c4cc(Cl)c(O)c(Cl)c4)cc3c2n1[C@H]1CC[C@H](O)CC1 | 0.0099 | 0.0202 | 
2 | Cc1nc2cnc3ccc(-c4ccc(N5CCOCC5)cc4)cc3c2n1C1CCN(C)CC1 | > 0.5 |  | 
3 | O=C(c1ccccc1)c1ccc2nc(NC(=O)c3csc(C4CCN(c5ncnc6ccsc56)CC4)n3)[nH]c2c1 |  |  | IC50 [4]: 0.2 µM
4 | Cc1nc2cnc3ccc(-c4cc(Cl)c(O)c(Cl)c4)cc3c2n1C1CCCN(C)C1 (stereo not drawn) | 0.0066 | 0.0049 | 
5 | Cc1nc2cnc3ccc(-c4cc(Cl)c(O)c(Cl)c4)cc3c2n1C1CCN(CN(C)C)CC1 | 0.0074 | 0.062 | 
6 | Cc1nc2cnc3ccc(-c4cc(Cl)c(O)c(Cl)c4)cc3c2n1C1CCOCC1 | 0.0068 | 0.0208 | IC50 [3]: 0.0226 µM
7 | Cc1nc2cnc3ccc(-c4cc(Cl)c(O)c(Cl)c4)cc3c2n1[C@H]1CCCN(C)C1 | 0.0055 | 0.0196 | 
8 | Cc1nc2cnc3ccc(-c4cc(Cl)c(O)c(Cl)c4)cc3c2n1[C@@H]1CCCN(C)C1 | 0.0026 | 0.0032 | IC50 [3]: 0.0135 µM; IC50 at 24 h [5]: 2 µM
9 | Cc1cc(-c2ccc3ncc4nc(C)n(C5CCN(C)CC5)c4c3c2)cc(C)c1O | 0.1 | > 0.5 | 
10 | Cc1nc2cnc3ccc(-c4cc(Cl)c(O)c(Cl)c4)cc3c2n1[C@H]1CC[C@H](N(C)C)CC1 | 0.0167 | 0.063 | 
11 | Cc1nc2cnc3ccc(-c4cc(Cl)c(O)c(Cl)c4)cc3c2n1[C@H]1CC[C@H](CO)CC1 | 0.0072 | 0.0154 | IC50 [3]: 0.0126 µM
12 | Nc1ccc(O)c(C(=O)O)c1 [MESALAMINE] |  |  | Activity (Mus musculus [6]): Active; Activity (Mus musculus [7]): Active; Activity (Mus musculus [8]): Active; Activity (Mus musculus [9]): Active; Activity (Mus musculus [10]): Active; Activity (Mus musculus [11]): Active; Activity (Mus musculus [12]): Active; Activity (Mus musculus [13]): Active; Activity (Mus musculus [14]): 11.69%

Further lines, with some results ahead:

Row | IC50 [1] [µM] | IC50 [2] [µM] | SMILES | further results
13 | 0.0194 | > 0.5 | Cc1nc2cnc3ccc(-c4cc(F)c(O)c(F)c4)cc3c2n1C1CCN(C)CC1 | IC50 [3]: > 0.5 µM
14 | > 0.5 | > 0.5 | Cc1nc2cnc3ccc(-c4ccc(O)c(C(F)(F)F)c4)cc3c2n1C1CCN(C)CC1 | 
15 | > 0.5 |  | Cc1nc2cnc3ccc(-c4ccc(F)c(O)c4)cc3c2n1C1CCN(C)CC1 | 
16 | 0.0119 | 0.127 | Cc1nc2cnc3ccc(-c4cc(F)c(O)c(Cl)c4)cc3c2n1C1CCN(C)CC1 | IC50 [3]: 0.136 µM
17 | > 0.5 | > 0.5 | Cc1nc2cnc3ccc(-c4cc(Cl)cc(Cl)c4)cc3c2n1C1CCN(C)CC1 | 
18 | > 0.5 |  | Cc1nc2cnc3ccc(-c4ccccc4O)cc3c2n1C1CCN(C)CC1 | 
19 | 0.386 | > 0.5 | Cc1nc2cnc3ccc(-c4ccc(O)cc4Cl)cc3c2n1C1CCN(C)CC1 | 
20 | 0.0423 | > 0.5 | Cc1nc2cnc3ccc(-c4ccc(O)c(Cl)c4)cc3c2n1C1CCN(C)CC1 | 
21 | 0.776 | > 0.5 | COc1cc(-c2ccc3ncc4nc(C)n(C5CCN(C)CC5)c4c3c2)ccc1O | 
22 | 0.56 | > 0.5 | Cc1nc2cnc3ccc(-c4ccc(O)cc4)cc3c2n1C1CCN(C)CC1 | 
23 | 0.03 | > 0.5 | Cc1nc2cnc3ccc(-c4ccc(O)c(F)c4)cc3c2n1C1CCN(C)CC1 | IC50 [3]: > 0.5 µM
24 | > 0.5 |  | Cc1nc2cnc3ccc(-c4ccc5c(c4)OCCO5)cc3c2n1C1CCN(C)CC1 | 
25 | 0.237 | > 0.5 | Cc1nc2cnc3ccc(-c4ccc(O)cc4F)cc3c2n1C1CCN(C)CC1 | 
26 | 0.435 | > 0.5 | Cc1cc(-c2ccc3ncc4nc(C)n(C5CCN(C)CC5)c4c3c2)ccc1O | 
27 | 0.236 | > 0.5 | Cc1nc2cnc3ccc(-c4ccc(O)c(C#N)c4)cc3c2n1C1CCN(C)CC1 | 
